Source: ChEMBL document CHEMBL5584203, “Discovery of sinomenine/8-Bis(benzylthio)octanoic acid hybrids as potential anti-leukemia drug candidate via mitochondrial pathway” (Bioorg Med Chem Lett, 2024)
pIC50: −log10 of the molar value.

Experiments:
[1] = test system: MCF7; assay: Antiproliferative activity against human MCF7 cells by CCK8 assay; type: functional, cell-based
[2] = test system: PANC-1; assay: Antiproliferative activity against human PANC-1 cells by CCK8 assay; type: functional, cell-based
[3] = test system: K562; assay: Antiproliferative activity against human K562 cells by CCK8 assay; type: functional, cell-based
[4] = test system: HepG2; assay: Antiproliferative activity against human HepG2 cells by CCK8 assay; type: functional, cell-based
[5] = test system: A549; assay: Antiproliferative activity against human A549 cells by CCK8 assay; type: functional, cell-based
[6] = test system: MDA-MB-231; assay: Antiproliferative activity against human MDA-MB-231 cells by CCK8 assay; type: functional, cell-based
[7] = Cytotoxicity against human PBMCs by CCK8 assay; type: toxicity, cell-based, PBMC
[8] = test system: K562; assay: Induction of apoptosis in human K562 cells assessed as late apoptotic cells at 1.23 uM by Annexin V-FITC and PI staining based flow cytometry analysis (reference value: 3.04%); type: functional
[9] = test system: K562; assay: Induction of apoptosis in human K562 cells assessed as late apoptotic cells at 2.45 uM by Annexin V-FITC and PI staining based flow cytometry analysis (reference value: 3.04%); type: functional
[10] = test system: K562; assay: Induction of cell cycle arrest in human K562 cells assessed as S phase cells at 2.45 uM by propidium iodide staining based flow cytometry analysis (reference value: 44.03%); type: functional
[11] = test system: K562; assay: Induction of cell cycle arrest in human K562 cells assessed as G2 phase cells at 2.45 uM by propidium iodide staining based flow cytometry analysis (reference value: 12.80%); type: functional
[12] = test system: K562; assay: Induction of cell cycle arrest in human K562 cells assessed as G2 phase cells at 4.90 uM by propidium iodide staining based flow cytometry analysis (reference value: 12.80%); type: functional; conditions: dose 4.9 µM
[13] = test system: K562; assay: Induction of cell cycle arrest in human K562 cells assessed as G2 phase cells at 1.23 uM by propidium iodide staining based flow cytometry analysis (reference value: 12.80%); type: functional
[14] = test system: K562; assay: Induction of apoptosis in human K562 cells assessed as early apoptotic cells at 4.90 uM by Annexin V-FITC and PI staining based flow cytometry analysis (reference value: 3.31%); type: functional; conditions: dose 4.9 µM
[15] = test system: K562; assay: Induction of cell cycle arrest in human K562 cells assessed as G1 phase cells at 2.45 uM by propidium iodide staining based flow cytometry analysis (reference value: 43.16%); type: functional
[16] = test system: K562; assay: Induction of cell cycle arrest in human K562 cells assessed as G1 phase cells at 1.23 uM by propidium iodide staining based flow cytometry analysis (reference value: 43.16%); type: functional
[17] = test system: K562; assay: Induction of apoptosis in human K562 cells assessed as early apoptotic cells at 1.23 uM by Annexin V-FITC and PI staining based flow cytometry analysis (reference value: 3.31%); type: functional
[18] = test system: K562; assay: Induction of apoptosis in human K562 cells assessed as chromatin condensation incubated for 48 hrs by Hoechst 33,258 staining based fluorescence microscopy analysis; type: functional, cell-based; conditions: dose 1.23-4.9 µM
[19] = test system: Cell membrane; assay: Induction of mitochondrial membrane potential loss in human K562 cells assessed as increase in apoptotic cells at 2.45 uM by JC-1 staining based flow cytometry analysis (reference value: 5.70); type: cell membranes
[20] = test system: Cell membrane; assay: Induction of mitochondrial membrane potential loss in human K562 cells assessed as increase in apoptotic cells at 1.23 uM by JC-1 staining based flow cytometry analysis (reference value: 5.70); type: cell membranes
[21] = test system: K562; assay: Induction of apoptosis in human K562 cells assessed as early apoptotic cells at 2.45 uM by Annexin V-FITC and PI staining based flow cytometry analysis (reference value: 3.31%); type: functional
[22] = test system: K562; assay: Induction of cell cycle arrest in human K562 cells assessed as G1 phase cells at 4.90 uM by propidium iodide staining based flow cytometry analysis (reference value: 43.16%); type: functional; conditions: dose 4.9 µM
[23] = test system: K562; assay: Induction of cell cycle arrest in human K562 cells assessed as S phase cells at 1.23 uM by propidium iodide staining based flow cytometry analysis (reference value: 44.03%); type: functional
[24] = test system: K562; assay: Induction of apoptosis in human K562 cells assessed as cell membrane rupture incubated for 48 hrs by Hoechst 33,258 staining based fluorescence microscopy analysis; type: functional; conditions: dose 1.23-4.9 µM
[25] = test system: K562; assay: Induction of apoptosis in human K562 cells assessed as late apoptotic cells at 4.90 uM by Annexin V-FITC and PI staining based flow cytometry analysis (reference value: 3.04%); type: functional; conditions: dose 4.9 µM
[26] = test system: Cell membrane; assay: Induction of mitochondrial membrane potential loss in human K562 cells assessed as increase in apoptotic cells at 4.90 uM by JC-1 staining based flow cytometry analysis (reference value: 5.70); type: cell membranes; conditions: dose 4.9 µM
[27] = test system: K562; assay: Induction of cell cycle arrest in human K562 cells assessed as S phase cells at 4.90 uM by propidium iodide staining based flow cytometry analysis (reference value: 44.03%); type: functional; conditions: dose 4.9 µM

SMILES | pIC50 [1] | pIC50 [2] | pIC50 [3] | pIC50 [4] | pIC50 [5] | pIC50 [6] | pIC50 [7] | other results
COC1=CC2[C@@H]3Cc4c(Br)cc(OC)c(O)c4[C@]2(CCN3C)CC1=O (stereo not given in full) | < 4.30 | < 4.30 | 4.48 | < 4.30 | < 4.30 | < 4.30 |  | 
COC1=CC2[C@@H]3Cc4c(Br)cc(OC)c(OC(=O)CCCCC(CCSCc5ccccc5)SCc5ccccc5)c4[C@]2(CCN3C)CC1=O (stereo not given in full) | < 4.30 | < 4.30 | 4.76 | < 4.30 | < 4.30 | < 4.30 | < 4.30 | 
COC1=CC2[C@@H]3Cc4ccc(OC)c(OCCOC(=O)CCCCC(CCSCc5ccccc5)SCc5ccccc5)c4[C@]2(CCN3C)CC1=O (stereo not given in full) | < 4.30 | < 4.30 | 3.80 | 4.32 | 4.94 | < 4.30 | < 4.30 | 
COC1=CC2[C@@H]3Cc4c(Br)cc(OC)c(OCCCCCOC(=O)CCCCC(CCSCc5ccccc5)SCc5ccccc5)c4[C@]2(CCN3C)CC1=O (stereo not given in full) | < 4.30 | < 4.30 | 4.65 | < 4.30 | < 4.30 | < 4.30 | < 4.30 | 
COC1=CC2[C@@H]3Cc4c(Cl)cc(OC)c(OC(=O)CCCCC(CCSCc5ccccc5)SCc5ccccc5)c4[C@]2(CCN3C)CC1=O (stereo not given in full) | < 4.30 | < 4.30 | 4.58 | < 4.30 | < 4.30 | < 4.30 | < 4.30 | 
COC1=CC2[C@@H]3Cc4ccc(OC)c(OCCCOC(=O)CCCCC(CCSCc5ccccc5)SCc5ccccc5)c4[C@]2(CCN3C)CC1=O (stereo not given in full) | 4.32 | < 4.30 | 5.38 | 4.43 | 4.75 | < 4.30 | < 4.30 | 
COC1=CC2[C@@H]3Cc4c(Br)cc(OC)c(OCCCCOC(=O)CCCCC(CCSCc5ccccc5)SCc5ccccc5)c4[C@]2(CCN3C)CC1=O (stereo not given in full) | < 4.30 | < 4.30 | 4.60 | < 4.30 | < 4.30 | < 4.30 | < 4.30 | 
COC1=CC2[C@@H]3Cc4c(Cl)cc(OC)c(OCCCCCOC(=O)CCCCC(CCSCc5ccccc5)SCc5ccccc5)c4[C@]2(CCN3C)CC1=O (stereo not given in full) | < 4.30 | < 4.30 | 4.71 | < 4.30 | < 4.30 | < 4.30 | < 4.30 | 
COC1=CC2[C@@H]3Cc4c(Cl)cc(OC)c(OCCOC(=O)CCCCC(CCSCc5ccccc5)SCc5ccccc5)c4[C@]2(CCN3C)CC1=O (stereo not given in full) | < 4.30 | < 4.30 | 4.77 | < 4.30 | < 4.30 | < 4.30 | < 4.30 | 
COC1=C[C@@H]2[C@@H]3Cc4ccc(OC)c(O)c4[C@]2(CCN3C)CC1=O [SINOMENINE] | < 4.30 | < 4.30 | 4.43 | < 4.30 | < 4.30 | < 4.30 |  | 
COC1=CC2[C@@H]3Cc4c(Br)cc(OC)c(OCCCOC(=O)CCCCC(CCSCc5ccccc5)SCc5ccccc5)c4[C@]2(CCN3C)CC1=O (stereo not given in full) | < 4.30 | < 4.30 | 4.61 | < 4.30 | < 4.30 | < 4.30 | < 4.30 | 
COC1=CC2[C@@H]3Cc4ccc(OC)c(OCCCCOC(=O)CCCCC(CCSCc5ccccc5)SCc5ccccc5)c4[C@]2(CCN3C)CC1=O (stereo not given in full) | 4.33 | < 4.30 | 5.27 | 4.44 | 4.54 | < 4.30 | < 4.30 | 
O=C(O)CCCCC(CCSCc1ccccc1)SCc1ccccc1 (stereo not given) [CPI 613] | < 4.30 | < 4.30 | < 4.30 | < 4.30 | < 4.30 | < 4.30 |  | 
COC1=CC2[C@@H]3Cc4c(Cl)cc(OC)c(O)c4[C@]2(CCN3C)CC1=O (stereo not given in full) | < 4.30 | < 4.30 | 4.41 | < 4.30 | < 4.30 | < 4.30 |  | 
COC1=CC2[C@@H]3Cc4c(Cl)cc(OC)c(OCCCCCCOC(=O)CCCCC(CCSCc5ccccc5)SCc5ccccc5)c4[C@]2(CCN3C)CC1=O (stereo not given in full) | < 4.30 | < 4.30 | 4.67 | < 4.30 | < 4.30 | < 4.30 | < 4.30 | 
COC1=CC2[C@@H]3Cc4c(Cl)cc(OC)c(OCCCCOC(=O)CCCCC(CCSCc5ccccc5)SCc5ccccc5)c4[C@]2(CCN3C)CC1=O (stereo not given in full) | < 4.30 | < 4.30 | 4.75 | < 4.30 | < 4.30 | < 4.30 | < 4.30 | 
COC1=CC2[C@@H]3Cc4c(Cl)cc(OC)c(OCCCOC(=O)CCCCC(CCSCc5ccccc5)SCc5ccccc5)c4[C@]2(CCN3C)CC1=O (stereo not given in full) | < 4.30 | < 4.30 | 4.56 | < 4.30 | < 4.30 | < 4.30 | < 4.30 | 
COC1=CC2[C@@H]3Cc4c(Br)cc(OC)c(OCCOC(=O)CCCCC(CCSCc5ccccc5)SCc5ccccc5)c4[C@]2(CCN3C)CC1=O (stereo not given in full) | < 4.30 | < 4.30 | 4.72 | < 4.30 | < 4.30 | < 4.30 | < 4.30 | 
O=c1[nH]cc(F)c(=O)[nH]1 [FLUOROURACIL] | < 4.30 | 4.32 | 5.29 |  | 4.46 | < 4.30 |  | 
COC1=CC2[C@@H]3Cc4c(Br)cc(OC)c(OCCCCCCOC(=O)CCCCC(CCSCc5ccccc5)SCc5ccccc5)c4[C@]2(CCN3C)CC1=O (stereo not given in full) | < 4.30 | < 4.30 | < 4.30 | < 4.30 | < 4.30 | < 4.30 | < 4.30 | 
COC1=CC2[C@@H]3Cc4ccc(OC)c(OCCCCCCOC(=O)CCCCC(CCSCc5ccccc5)SCc5ccccc5)c4[C@]2(CCN3C)CC1=O (stereo not given in full) | < 4.30 | < 4.30 | 5.52 | 4.55 | 4.79 | < 4.30 | < 4.30 | 
COC1=CC2[C@@H]3Cc4ccc(OC)c(OC(=O)CCCCC(CCSCc5ccccc5)SCc5ccccc5)c4[C@]2(CCN3C)CC1=O (stereo not given in full) | < 4.30 | < 4.30 | 4.63 | < 4.30 | < 4.30 | < 4.30 | < 4.30 | 
COC1=CC2[C@@H]3Cc4ccc(OC)c(OCCCCCOC(=O)CCCCC(CCSCc5ccccc5)SCc5ccccc5)c4[C@]2(CCN3C)CC1=O (stereo not given in full) | 4.34 | < 4.30 | 5.61 | 4.81 | 4.62 | < 4.30 | < 4.30 | Activity [8]: 3.53%; Activity [9]: 13.66%; Activity [10]: 38.69%; Activity [11]: 3.47%; Activity [12]: 6.48%; Activity [13]: 10.69%; Activity [14]: 25.04%; Activity [15]: 54.84%; Activity [16]: 47.39%; Activity [17]: 9.83%; Activity [18]: Dose-Dependent Effect; Activity [19]: 41.1%; Activity [20]: 26.4%; Activity [21]: 24.33%; Activity [22]: 60.57%; Activity [23]: 41.92%; Activity [24]: Dose-Dependent Effect; Activity [25]: 39.9%; Activity [26]: 59.1%; Activity [27]: 32.95%
